Measurements as given in patent US11427548B2 (Arvinas Operations, Inc., priority 2015, dated 2022).
Where two headings read alike, the source gives them in different places.

Target: T1, Androgen Receptor (Homo sapiens, UniProt P10275)
T1 construct: endogenous in cells; host or cells: VCaP cells
T1 sequence (P10275 1-920): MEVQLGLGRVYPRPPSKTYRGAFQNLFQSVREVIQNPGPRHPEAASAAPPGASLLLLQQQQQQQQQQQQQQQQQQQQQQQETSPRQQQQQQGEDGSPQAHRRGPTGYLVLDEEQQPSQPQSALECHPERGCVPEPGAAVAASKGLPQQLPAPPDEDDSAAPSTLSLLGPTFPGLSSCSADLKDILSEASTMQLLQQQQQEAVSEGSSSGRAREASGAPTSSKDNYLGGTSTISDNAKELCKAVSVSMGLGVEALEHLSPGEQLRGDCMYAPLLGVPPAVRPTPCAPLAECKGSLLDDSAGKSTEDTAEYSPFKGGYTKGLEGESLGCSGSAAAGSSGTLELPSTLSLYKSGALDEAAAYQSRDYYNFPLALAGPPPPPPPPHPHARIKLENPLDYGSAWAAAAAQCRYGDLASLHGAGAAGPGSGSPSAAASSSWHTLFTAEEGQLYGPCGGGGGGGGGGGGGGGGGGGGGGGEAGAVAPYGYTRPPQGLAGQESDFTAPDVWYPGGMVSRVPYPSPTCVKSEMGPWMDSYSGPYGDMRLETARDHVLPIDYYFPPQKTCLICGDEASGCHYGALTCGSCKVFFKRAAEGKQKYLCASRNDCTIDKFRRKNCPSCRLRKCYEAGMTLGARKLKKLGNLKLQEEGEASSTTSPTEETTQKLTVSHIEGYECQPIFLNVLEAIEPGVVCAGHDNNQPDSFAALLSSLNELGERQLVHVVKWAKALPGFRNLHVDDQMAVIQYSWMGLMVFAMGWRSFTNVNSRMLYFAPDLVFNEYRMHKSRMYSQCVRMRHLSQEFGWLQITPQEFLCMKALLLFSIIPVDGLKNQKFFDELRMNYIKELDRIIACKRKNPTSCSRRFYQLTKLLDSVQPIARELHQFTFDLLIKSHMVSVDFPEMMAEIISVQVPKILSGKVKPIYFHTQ
Test: Androgen Receptor ELISA assay (PathScan AR ELISA) in VCaP cells: AR degradation, Dmax and DC50
Assay type: cell-based
How it was run: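 VCaP cells, 30,000/well, grown ≥3 days in phenol red-free RPMI with 5% charcoal-stripped FBS; compound added in 0.1% DMSO with 0.1 nM R1881, 7 half-log doses, 24 h. Lysate AR quantified by PathScan sandwich ELISA, HRP/TMB read at 450 nm, giving DC50 and Dmax.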

[1] = VCaP cells; Table 36; read-out: VCaP DC50
[2] = VCaP, read-out: VCaP Dmax (%), VCaP cells; Table 36
[3] = VCaP, VCaP cells; Table 36; read-out: VCaP Dmax (%)
[4] = read-out: VCaP DC50; VCaP cells; Table 36

SMILES	DC50 [1] [µM]	Dmax [2] [%]	Dmax [3] [%]	Dmax (VCaP, read-out: VCaP Dmax (%)) [%]	DC50 [4] [µM]
Cc1ncsc1-c1ccc([C@H](C)NC(=O)[C@@H]2C[C@@H](O)CN2C(=O)[C@@H](NC(=O)COCCCCCNc2ccc(C(=O)N[C@H]3C(C)(C)[C@H](Oc4ccc(C#N)c(Cl)c4)C3(C)C)cc2F)C(C)(C)C)cc1 [Example 656, (2S,4R)-1-((S)-2-(2-((5-((4-(((1r,3r)-3-(3-chloro-4-cyanophenoxy)-2,2,4,4-tetramethylcyclobutyl)carbamoyl)-2-fluorophenyl)amino)pentyl)oxy)acetamido)-3,3-dimethylbutanoyl)-4-hydroxy-N-((S)-1-(4-(4-methylthiazol-5-yl)phenyl)ethyl)pyrrolidine-2-carboxamide]	< 0.05	> 71			
Cc1ncsc1-c1ccc([C@H](C)NC(=O)[C@@H]2C[C@@H](O)CN2C(=O)[C@@H](NC(=O)COCCCCCc2ccc(C(=O)N[C@H]3C(C)(C)[C@H](Oc4ccc(C#N)c(C(F)(F)F)c4)C3(C)C)cc2)C(C)(C)C)cc1 [Example 657, (2S,4R)-1-((S)-2-(2-((5-(4-(((1r,3r)-3-(4-cyano-3-(trifluoromethyl)phenoxy)-2,2,4,4-tetramethylcyclobutyl)carbamoyl)phenyl)pentyl)oxy)acetamido)-3,3-dimethylbutanoyl)-4-hydroxy-N-((S)-1-(4-(4-methylthiazol-5-yl)phenyl)ethyl)pyrrolidine-2-carboxamide]	< 0.05	51 to 70			
Cc1ncsc1-c1ccc([C@H](C)NC(=O)[C@@H]2C[C@@H](O)CN2C(=O)[C@H](c2cc(OCCN3CCN(c4ccc(C(=O)N[C@H]5C(C)(C)[C@H](Oc6ccc(C#N)c(Cl)c6)C5(C)C)cn4)CC3)no2)C(C)C)cc1 [Example 658, N-((1r,3r)-3-(3-chloro-4-cyanophenoxy)-2,2,4,4-tetramethylcyclobutyl)-6-(4-(2-((5-((S)-1-((2S,4R)-4-hydroxy-2-(((S)-1-(4-(4-methylthiazol-5-yl)phenyl)ethyl)carbam-oyl)pyrrolidin-1-yl)-3-methyl-1-oxobutan-2-yl)isoxazol-3-yl)oxy)ethyl)piperazin-1-yl)nicotinamide]	> 0.501		< 25		
Cc1ncsc1-c1ccc([C@H](C)NC(=O)[C@@H]2C[C@@H](O)CN2C(=O)[C@@H](c2cc(OCCN3CCN(c4ccc(C(=O)N[C@H]5C(C)(C)[C@H](Oc6ccc(C#N)c(Cl)c6)C5(C)C)cn4)CC3)no2)C(C)C)cc1 [Example 659, N-((1r,3r)-3-(3-chloro-4-cyanophenoxy)-2,2,4,4-tetramethylcyclobutyl)-6-(4-(2-((5-((R)-1-((2S,4R)-4-hydroxy-2-(((S)-1-(4-(4-methylthiazol-5-yl)phenyl)ethyl)carbam-oyl)pyrrolidin-1-yl)-3-methyl-1-oxobutan-2-yl)isoxazol-3-yl)oxy)ethyl)piperazin-1-yl)nicotinamide]	< 0.05		> 71		
Cc1ncsc1-c1ccc([C@H](C)NC(=O)[C@@H]2C[C@@H](O)CN2C(=O)[C@@H](NC(=O)COCCN2CCN(c3ccc(C(=O)N[C@H]4C(C)(C)[C@H](Oc5ccc(C#N)c(Cl)c5)C4(C)C)cc3)CC2)C(C)(C)O)cc1 [Example 660, (2S,4R)-1-((S)-2-(2-(2-(4-(4-(((1r,3r)-3-(3-chloro-4-cyanophenoxy)-2,2,4,4-tetramethylcyclobutyl)carbamoyl)phenyl)piper-azin-1-yl)ethoxy)acetamido)-3-hydroxy-3-methylbutanoyl)-4-hydroxy-N-((S)-1-(4-(4-methylthiazol-5-yl)phenyl)ethyl)pyrrolidine-2-carboxamide]	> 0.501	26 to 50			
Cc1ncsc1-c1ccc(C(C)NC(=O)C2CC(O)CN2C(=O)C(NC(=O)COCCCOCCCCCOc2ccc(N3C(=S)N(c4ccc(C#N)c(C(F)(F)F)c4)C(=O)C3(C)C)cc2)C2COC2)cc1 (stereo not drawn) [Example 661, 1-(2-(2-(3-((5-(4-(3-(4-cyano-3-(trifluoromethyl)phenyl)-5,5-dimethyl-4-oxo-2-thioxoimidazolidin-1-yl)phenoxy)pentyl)oxy)propoxy)acetamido)-2-(oxetan-3-yl)acetyl)-4-hydroxy-N-(1-(4-(4-methylthiazol-5-yl)phenyl)ethyl)pyrrolidine-2-carboxamide]				< 25	> 0.501
Cc1cn(-c2ccc([C@H](C)NC(=O)[C@@H]3C[C@@H](O)CN3C(=O)[C@@H](NC(=O)COCCCOCCCCCOc3ccc(N4C(=S)N(c5ccc(C#N)c(C(F)(F)F)c5)C(=O)C4(C)C)cc3)C(C)(C)C)cc2)cn1 [Example 663, (2S,4R)-1-((S)-2-(2-(3-((5-(4-(3-(4-cyano-3-(trifluoromethyl)phenyl)-5,5-dimethyl-4-oxo-2-thioxoimidazolidin-1-yl)phenoxy)pentyl)oxy)propoxy)acetamido)-3,3-dimethylbutanoyl)-4-hydroxy-N-((S)-1-(4-(4-methyl-1H-imidazol-1-yl)phenyl)ethyl)pyrrolidine-2-carboxamide]				< 25	> 0.501
Cc1ncsc1-c1ccc([C@H](C)NC(=O)[C@@H]2C[C@@H](O)CN2C(=O)[C@@H](NC(=O)CN2CCO[C@@H](CN3CCO[C@@H](COc4ccc(N5C(=S)N(c6ccc(C#N)c(C(F)(F)F)c6)C(=O)C5(C)C)cc4)C3)C2)C(C)(C)C)cc1 [Example 667, (2S,4R)-1-((S)-2-(2-((S)-2-(((R)-2-((4-(3-(4-cyano-3-(trifluoromethyl)phenyl)-5,5-dimethyl-4-oxo-2-thioxoimidazolidin-1-yl)phenoxy)methyl)mor-pholino)methyl)mor-pholino)acetamido)-3,3-dimethylbutanoyl)-4-hydroxy-N-((S)-1-(4-(4-methylthiazol-5-yl)phenyl)ethyl)pyrrolidine-2-carboxamide]				< 25	> 0.501

Second part, led by results:

DC50 [1] [µM]	Dmax [2] [%]	Dmax [3] [%]	SMILES	Dmax (VCaP, read-out: VCaP Dmax (%)) [%]	DC50 [4] [µM]
< 0.05	51 to 70		Cc1ncsc1-c1ccc([C@H](C)NC(=O)[C@@H]2C[C@@H](O)CN2C(=O)[C@@H](NC(=O)[C@H](C)OCCN2CCN(c3ccc(C(=O)N[C@H]4C(C)(C)[C@H](Oc5ccc(C#N)c(Cl)c5)C4(C)C)cc3)CC2)C(C)(C)C)cc1 [Example 664, (2S,4R)-1-((S)-2-((S)-2-(2-(4-(4-(((1r,3r)-3-(3-chloro-4-cyanophenoxy)-2,2,4,4-tetramethylcyclobutyl)carbamoyl)phenyl)piper-azin-1-yl)ethoxy)propanamido)-3,3-dimethylbutanoyl)-4-hydroxy-N-((S)-1-(4-(4-methylthiazol-5-yl)phenyl)ethyl)pyrrolidine-2-carboxamide]		
< 0.05		51 to 70	Cc1ncsc1-c1ccc([C@H](C)NC(=O)[C@@H]2C[C@@H](O)CN2C(=O)[C@@H](NC(=O)CN2CCN(CCCc3ccc(C(=O)N[C@H]4C(C)(C)[C@H](Oc5ccc(C#N)c(C(F)(F)F)c5)C4(C)C)cc3)CC2)C(C)(C)C)cc1 [Example 665, (2S,4R)-1-((S)-2-(2-(4-(3-(4-(((1r,3r)-3-(4-cyano-3-(trifluoromethyl)phenoxy)-2,2,4,4-tetramethylcyclobutyl)carbamoyl)phenyl)propyl)piperazin-1-yl)acetamido)-3,3-dimethylbutanoyl)-4-hydroxy-N-((S)-1-(4-(4-methylthiazol-5-yl)phenyl)ethyl)pyrrolidine-2-carboxamide]		
> 0.501		26 to 50	Cc1ncsc1-c1ccc([C@H](C)NC(=O)[C@@H]2C[C@@H](O)CN2C(=O)[C@@H](NC(=O)COCCCCCNC23CC(C(=O)N[C@H]4C(C)(C)[C@H](Oc5ccc(C#N)c(Cl)c5)C4(C)C)(C2)C3)C(C)(C)C)cc1 [Example 666, (2S,4R)-1-((S)-2-(2-((5-((3-(((1r,3r)-3-(3-chloro-4-cyanophenoxy)-2,2,4,4-tetramethylcyclobutyl)carbamoyl)bicyclo[1.1.1]pentan-1-yl)amino)pentyl)oxy)acetamido)-3,3-dimethylbutanoyl)-4-hydroxy-N-((S)-1-(4-(4-methylthiazol-5-yl)phenyl)ethyl)pyrrolidine-2-carboxamide]		
0.051 to 0.5	26 to 50		CC(NC(=O)C1CC(O)CN1C(=O)C(NC(=O)COCCN1CC2CC1CN2c1ccc(C(=O)NC2C(C)(C)C(Oc3ccc(C#N)c(Cl)c3)C2(C)C)cn1)C(C)(C)C)c1ccc(-c2scnc2CO)cc1 [Example 668, N-((1r,3R)-3-(3-chloro-4-cyanophenoxy)-2,2,4,4-tetramethylcyclobutyl)-6-((1R,4R)-5-(2-(2-(((S)-1-((2S,4R)-4-hydroxy-2-(((S)-1-(4-(4-(hydroxymethyl)thiazol-5-yl)phenyl)ethyl)carbam-oyl)pyrrolidin-1-yl)-3,3-dimethyl-1-oxobutan-2-yl)amino)-2-oxoethoxy)ethyl)-2,5-diazabicyclo[2.2.1]hept-an-2-yl)nicotinamide]		
